Test results: US11850273B2, “Chemical reprogramming of human glial cells into neurons for brain and spinal cord repair” (The Penn State Research Foundation, priority 2014, dated 2023)
Entries after “also recorded” stand apart in the source; their conditions may differ.

What was measured:
[1] = cited from earlier work
human astrocytes = assay: Withdrawal of each individual compound from the 9 small molecule pool; assay type: cell-based; settings: 14 days post initial treatment; for effect of removal from the 9 small molecule pool on number of converted neurons / reprogramming efficiency: SAG and Purmo removed together
Source text: This Example describes analysis of functional roles of each individual compound during chemical reprogramming. To dissect out the contribution of each single molecule toward reprogramming, we performed a series of experiments by withdrawing each individual compound from our cocktail pool (FIG. 6). […] FIG. 6K illustrates the summarized data of drug withdrawing experiments. While it is not a surprise that Tzv had no effect since it mainly acts as a cell survival factor, it was unexpected to find that removing TTNPB had no effect. […] On the other hand, the inhibition of Notch signaling, GSK-3β, and BMP/TGFβ signaling pathways appeared to be important for reprogramming astrocytes into neurons. […] Reprogramming human astrocytes into neurons. The astrocytes were cultured on poly-D-lysine (Sigma) coated coverslips (12 mm) at a density of 50,000 cells per coverslip in 24-well plates (BD Biosciences). The cells were cultured in human astrocyte medium until 90% confluence. At day 0 before reprogramming, half of the culture medium was replaced by N2 medium consisting of DMEM/F12 (Gibco), penicillin/streptomycin (Gibco) and N2 supplements (Gibco). The following day (Day 1), the culture medium was completely replaced by N2 medium supplemented with small molecules, or with 1% DMSO in control group. […] To promote synaptic maturation of converted neurons, brain-derived neurotrophic factor (BDNF, 20 ng/Ml, Invitrogen), Insulin-like growth factor 1 (IGF-1, 10 ng/ml, Invitrogen) and neurotrophin 3 (NT-3, 10 ng/ml, Invitrogen) were added in neuronal differentiation medium at day 9 and were refreshed every four days until day 30 (Song et al., 2002).

gamma secretase = settings: read-out: IC50 γ-secretase; cited from earlier work
[2] = tested on: Aβ42 in human neuroblastoma cells; settings: cited from earlier work
[3] = tested on: Aβ40 in human neuroblastoma cells; settings: cited from earlier work
[4] = tested on: Notch cleavage and Notch-mediated intracellular signaling; settings: cited from earlier work
[5] = tested on: BACE1, BACE2, α-secretase, the proteasome or GSK3β; settings: cited from earlier work
Notch = settings: cited from earlier work
[6] = tested on: Aβ40 and Aβ42 in SH-SY5Y neuroblastoma cells; settings: cited from earlier work
[7] = tested on: mouse embryonic stem cells; settings: At 400 Nm; cited from earlier work
GSK-3β = GSK-3β (Homo sapiens, UniProt P49841); settings: cited from earlier work
[8] = tested on: human cortical astrocytes (HA1800, ScienCell); assay type: cell-based; settings: VPA in reprogramming medium longer than 2 days
[9] = tested on: human astrocyte-converted neurons; assay: Patch clamp whole-cell recordings of human astrocyte-converted neurons
TGFβR-I = TGFβR-I (Homo sapiens, UniProt P36897); settings: cited from earlier work
Chain of TGFβR-I (P36897 34-503): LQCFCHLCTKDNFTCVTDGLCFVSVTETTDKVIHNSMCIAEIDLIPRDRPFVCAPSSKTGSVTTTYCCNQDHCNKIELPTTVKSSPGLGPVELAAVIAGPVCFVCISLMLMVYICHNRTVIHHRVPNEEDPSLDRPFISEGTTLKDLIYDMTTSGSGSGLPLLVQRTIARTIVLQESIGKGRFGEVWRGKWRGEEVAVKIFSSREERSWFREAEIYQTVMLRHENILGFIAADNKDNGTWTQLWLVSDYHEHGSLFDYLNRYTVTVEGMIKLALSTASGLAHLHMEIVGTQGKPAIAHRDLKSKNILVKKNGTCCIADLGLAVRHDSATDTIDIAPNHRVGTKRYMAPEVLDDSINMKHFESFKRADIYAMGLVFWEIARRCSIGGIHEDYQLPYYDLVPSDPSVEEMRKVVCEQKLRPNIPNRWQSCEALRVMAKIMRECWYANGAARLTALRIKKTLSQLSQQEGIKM

Chain of GSK-3β (P49841 whole entry, species assumed): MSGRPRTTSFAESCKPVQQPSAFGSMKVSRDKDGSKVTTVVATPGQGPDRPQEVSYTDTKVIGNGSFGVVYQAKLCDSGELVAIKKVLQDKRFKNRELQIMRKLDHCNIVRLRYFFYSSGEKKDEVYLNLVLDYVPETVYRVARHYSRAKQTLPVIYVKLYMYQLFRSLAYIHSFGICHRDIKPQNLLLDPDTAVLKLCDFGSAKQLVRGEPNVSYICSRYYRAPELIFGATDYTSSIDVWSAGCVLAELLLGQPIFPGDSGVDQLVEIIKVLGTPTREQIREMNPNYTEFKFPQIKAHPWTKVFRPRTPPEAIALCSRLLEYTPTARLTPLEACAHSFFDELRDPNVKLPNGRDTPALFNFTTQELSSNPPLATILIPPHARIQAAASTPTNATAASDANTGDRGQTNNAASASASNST

## N#Cc1ccc2[nH]c(O)c(-c3ccc(CN4CCOCC4)cn3)c2c1 [AZD1080]
[1]
  oral activity and brain permeability: selective, orally active, brain permeable GSK3 inhibitor

## C[C@H](NC(=O)Cc1cc(F)cc(F)c1)C(=O)N[C@H](C(=O)OC(C)(C)C)c1ccccc1 [DAPT]
Human astrocytes
  effect of individual removal from the 9 small molecule pool on number of converted neurons / reprogramming efficiency: significantly reduced; also recorded: most significant reduction

## CC(C)C[C@H](NC(=O)[C@H](Cc1ccccc1)C[C@@H](O)[C@H](Cc1ccccc1)NC(=O)OC(C)(C)C)C(=O)N[C@@H](Cc1ccccc1)C(N)=O [L-685, 458]
Gamma secretase
  IC50: 17 nM
[2]
  IC50: 67 nM
[3]
  IC50: 48 nM

## COc1oc(=O)c2cc(N)ccc2c1Cl [LK 6]
[4]
  effect on Notch cleavage and Notch-mediated intracellular signaling: no effect
[5]
  activity on BACE1, BACE2, α-secretase, the proteasome or GSK3β: signaling. Displays no activity on BACE1, BACE2,

## C[C@H](NC(=O)CCC(F)(F)F)C(=O)N[C@@H]1C(=O)N(CCO)c2ncccc2-c2ccccc21 [LY3039478]
Notch
  IC50: 0.41 nM

## O=S(=O)(NC1CCC(c2cc(F)ccc2F)(S(=O)(=O)c2ccc(Cl)cc2)CC1)C(F)(F)F (stereo not shown) [MRK 560]
[1]
  oral bioavailability: Orally bioavailable.
[6]
  IC50: 0.65 nM

## c1ccc2c(Oc3nc(Nc4ccc(N5CCOCC5)cc4)c4ncn(C5CCCCC5)c4n3)cccc2c1 [Purmo, purmorphamine]
Human astrocytes
  effect of removal from the 9 small molecule pool on number of converted neurons / reprogramming efficiency: slightly reduced

## CC(C)(C(=O)NCC(F)(F)C(F)(F)F)C(=O)N[C@@H]1C(=O)Nc2ccccc2-c2ccccc21 [RO4929097]
Gamma secretase
  IC50: 4 nM

## CNC1CCC(N(Cc2cccc(-c3ccncc3)c2)C(=O)c2sc3ccccc3c2Cl)CC1 (stereo not shown) [SAG]
Human astrocytes
  effect of removal from the 9 small molecule pool on number of converted neurons / reprogramming efficiency: slightly reduced

## NC(=O)c1ccc(-c2nc(-c3ccc4c(c3)OCO4)c(-c3ccccn3)[nH]2)cc1 [SB431542, -[4-(1,3-benzodioxol-5-yl)-5-(2-pyridinyl)-1H-imidazol-2-yl]benzamide]
Human astrocytes
  effect of individual removal from the 9 small molecule pool on number of converted neurons / reprogramming efficiency: significantly reduced

## C/C(=C\c1ccc(C(=O)O)cc1)c1ccc2c(c1)C(C)(C)CCC2(C)C [TTNPB]
Human astrocytes
  effect of individual removal from the 9 small molecule pool on number of converted neurons / reprogramming efficiency: did not affect; also recorded: did not have a significant effect

## Nc1cccc(-c2cc3c(Oc4cccc(O)c4)ncnc3[nH]2)c1 [TWS119]
[7]
  neurogenesis in mouse embryonic stem cells: TWS119 induces neurogenesis in mouse embryonic
GSK-3β
  IC50: 30 nM

## O=C(NCc1ccccc1)c1csc(Nc2ccncn2)n1 [Tzv, thiazovivin]
Human astrocytes
  effect of individual removal from the 9 small molecule pool on number of converted neurons / reprogramming efficiency: did not affect; also recorded: did not have a significant effect

## CCCC(CCC)C(=O)O [VPA, valproic acid]
[8]
  cell death: increased cell death
Human astrocytes
  effect of individual removal from the 9 small molecule pool on number of converted neurons / reprogramming efficiency: slightly reduced

## DNQX
[9]
  effect on the majority of synaptic events at −70 mV: blocked

## LY364947
TGFβR-I
  selectivity over TGFβR-II: shows 7-fold selectivity over TGFβR-II.
